Data on 10 compounds can be found in article PMC5437200, “Ionic liquids for the passive sampling of sulfonamides from water—applicability and selectivity study” (Analytical and Bioanalytical Chemistry, 2017).

A short description of series [1]: stability (recovery) of ionic liquids inside the PASSIL dosimeter. Conditions: PES membranes, 14-day passive sampling, 20 °C; from IL mass before and after. The series is classed as physicochemical. As for the experimental part:
Passive sampling experiments were conducted analogously to previous studies. The passive dosimeter was made of plexiglass and contained two polyethersulfone (PES) membranes with their inner sides covered with the receiving phase—ionic liquid (separately for each of the seven tested ILs) of a total mass equal to 200 mg. Nylon (Phenomenex) and Teflon (Merck) membranes were also tested. The donor phase was 100 mL of water solution with an initial sulfonamide concentration of 2 μg mL^−1. The experimental setup was kept away from light radiation and at a constant temperature (20 °C). Each extraction lasted 14 days and the samples (1 mL) of the donor solution were collected every 2 days. The solution was stirred using a magnetic stirrer (1000 rpm), which was not renewed. After the experiment, the receiving phase was dissolved using 50 mL of acetonitrile. All the obtained samples (both from the donor and receiving phases) were analyzed by HPLC with a diode-array detector (DAD, Schimadzu, 272 nm). The analysis was performed using a Gemini 5-μm C18 column (Phenomenex). The injection volume was 10 μL. The flow rate was 1.5 mL min^−1. Acetonitrile (ACN) was used as the organic component of the mobile phase, and the aqueous component was an acetate buffer (5 mmol L^−1 CH3COONH4, pH = 4) with 5% of ACN. The mobile phase gradient was applied. The recovery of the receiving phase, the extraction efficiency, and the sampling rate (for [P666-14][N(CN)2]) were calculated for each analyte according to the equations presented in [30]. Moreover, micrographs using a HITACHI S-3400N scanning electron microscope (SEM) were taken to study the morphological appearance of the membranes covered with an ionic liquid [P666-14][N(CN)2].
The basic parameter of an applied ionic liquid is its physical stability inside the homemade dosimeter expressed by the IL recovery (%) calculated from the difference between ionic liquid masses before and after the passive sampling. The highest recovery (more than 90%) of ionic liquids was achieved by phosphonium-cation-based ILs and PES membranes (Fig. 3). […]

A short description of series [2]: ionization degrees of sulfonamides in the donor solution (calculated). It is filed as physicochemical. Particulars: initial pH 5.64; calculated using equations in ref 39.
On the set-up of series [3]: method as in PMID 22579461. Particulars: cited from earlier work.
Series [4] is described as follows: octanol-water shake experiment for logKOW and logDOW. It is filed as physicochemical. Particulars: for logD: n-octanol/ultrapure water pH 5.6, room temperature, read-out: LogD OW pH 5.6 (exp); for LogK OW (exp): n-octanol/ultrapure water, room temperature.

Molecules are shown by their SMILES.

For `CCCCCCCCCCCCCC[P+](CCCCCC)(CCCCCC)CCCCCC.FC(F)(F)C(F)(F)[P-](F)(F)(F)(C(F)(F)C(F)(F)F)C(F)(F)C(F)(F)F` [[P666-14][(C2F5)3PF3], trihexyl(tetradecyl)phosphonium tri(pentafluoroethyl)trifluorophosphate], in series [1], the IL recovery amounted to 98.5%.
In the case of `COc1cc(NS(=O)(=O)c2ccc(N)cc2)nc(OC)n1` [SDX, sulfadimethoxine], in series [2], the α2 ionization degree is 99.9% and the “α3 ionization degree (negatively charged form)” value (“α3 ionization degree” for short) is 35.5%. Moreover, in series [3], the pKa2 was 2.5 and the pKa3 is 5.9.
The logD is the decadic logarithm of the distribution of all forms, ionised or not, between an organic phase and buffer at a given pH. As for `Cc1nnc(NS(=O)(=O)c2ccc(N)cc2)s1` [SMT, sulfamethiazole], in series [2], the α2 ionization degree was 100.0% and the “α3 ionization degree” value is listed as 58.0%. In addition, in series [4], the logD is -0.34 and the “LogK OW (exp)” value was 0.01. In addition, in series [3], the pKa2 was 1.8 and the pKa3 was 5.5.
For the compound `Nc1ccc(S(=O)(=O)Nc2nccs2)cc1` [STZ, sulfathiazole], in series [2], the α2 ionization degree is recorded as 100.0% and the “α3 ionization degree” value is on record as 3.4%. In series [4], the logD is -0.17 and the “LogK OW (exp)” value is given as −0.16. Further, in series [3], the pKa2 is 2.1 and the pKa3 is on record as 7.1.
For `Nc1ccc(S(=O)(=O)Nc2ccccn2)cc1` [SPD, sulfapyridine], the α2 ionization degree in series [2] is recorded as 99.9%. Also, in series [4], the logD worked out at 0.04 and the “LogK OW (exp)” value is given as 0.04. Besides, in series [3], the pKa2 was 2.4 and the pKa3 is 8.2.
In the case of `CCCCCCCCCCCCCC[P+](CCCCCC)(CCCCCC)CCCCCC.N#C[N-]C#N` [[P666-14][N(CN)2], trihexyl(tetradecyl)phosphonium dicyanamide], in series [1], the IL recovery is recorded as 92.4%.
For the compound `CCCCCCCCCCCCCC[P+](CCCCCC)(CCCCCC)CCCCCC.O=S(=O)([N-]S(=O)(=O)C(F)(F)F)C(F)(F)F` [[P666-14][TFN], trihexyl(tetradecyl)phosphonium bis(trifluoromethylsulfonyl)imide], the IL recovery in series [1] is given as 98.9%.
As to `Nc1ccc(S(=O)(=O)Nc2ccc(Cl)nn2)cc1` [SCP, sulfachloropyridazine], in series [2], the α2 ionization degree was 100.0% and the “α3 ionization degree” value is 58.0%. In addition, in series [4], the logD is 0 and the “LogK OW (exp)” value came out at 0.36. In series [3], the pKa2 is given as 2.2 and the pKa3 is recorded as 5.5.
In the case of `Cc1ccnc(NS(=O)(=O)c2ccc(N)cc2)n1` [SMZ, sulfamerazine], in series [2], the α2 ionization degree is listed as 100.0% and the “α3 ionization degree” value is 6.5%. In series [4], the logD came to 0.16 and the “LogK OW (exp)” value is recorded as 0.19. In addition, in series [3], the pKa2 is reported as 1.8 and the pKa3 is listed as 6.8.
With `Nc1ccc(S(=O)(=O)Nc2ncccn2)cc1` [SDZ, sulfadiazine], the pKa2 in series [3] was 1.8.
